Measurements from patent US20260364181A1, “AKR1C3 Targeted Heterobifunctional Small Molecule Proteolysis Targeting Chimeras” (BOARD OF REGENTS OF THE UNIVERSITY OF NEBRASKA, priority 2022, published 2026).

Experiments:
Assay type in all cases: cell-based
AKR1C3 = biological target: T1, AKR1C3 (Homo sapiens, UniProt P42330); test: AKR1C3 protein degradation in 22Rv1 prostate cancer cells (Western blot); design: 22Rv1 prostate cancer cells that express high levels of AKR1C3; host or cells: 22Rv1; conditions: read-out: AKR1C3 DC50 (half-maximal degradation concentration); 72 hours
T1 sequence (P42330 1-323): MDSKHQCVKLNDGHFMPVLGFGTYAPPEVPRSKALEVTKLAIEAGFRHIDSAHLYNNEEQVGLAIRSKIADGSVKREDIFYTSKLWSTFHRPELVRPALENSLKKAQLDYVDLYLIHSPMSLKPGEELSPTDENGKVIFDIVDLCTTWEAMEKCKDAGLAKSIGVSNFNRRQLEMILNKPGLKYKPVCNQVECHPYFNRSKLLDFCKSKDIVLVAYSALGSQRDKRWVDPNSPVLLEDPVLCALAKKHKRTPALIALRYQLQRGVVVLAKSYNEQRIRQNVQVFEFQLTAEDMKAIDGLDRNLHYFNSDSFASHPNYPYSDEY

ARv7 = ARv7 protein degradation in 22Rv1 prostate cancer cells (Western blot)
Procedure: Protein Expression via Western Blot. 22Rv1 cells were seeded in a 6-well plate and incubated overnight. Next day, the cells were treated with varying concentrations of 6 (1 and 10 μM) and 5 (0.5, 1, 10, 50, 100, 250, and 500 nM; 1, 10, and 50 μM) for 24 hours and 5 (1 and 10 nM) at different time points (0, 2, 4, 6, 12, 16, 24, 48, and 72 h). Whole cell lysates were extracted in RIPA lysis buffer containing protease inhibitor and EDTA (Fisher Scientific, PI78440). Protein concentrations in each sample was estimated following BCA assay (Pierce™ BCA protein assay kit, Fisher Scientific, PI23227) as per the manufacturer's protocol. Proteins were standardized using RIPA lysis buffer with Laemelli SDS sample buffer (Thermo Scientific, AAJ61337AC) and heated at 1000C for 15 minutes. The proteins were resolved on a 4-12% premade gel (Invitrogen, NW04120BOX) at 60-90 V in 20× Bolt™ MES SDS running buffer (Fisher Scientific, B000202) and transferred onto a nitrocellulose membrane (Invitrogen, IB23001) using iBlot 2. The membranes were blocked with 2.5% non-fat dry milk (Bio-Rad, 1706404) for 1 h, and the membrane was incubated overnight on a rocking platform at 4 °C with the desired primary antibodies against AKR1C3 (mouse mAb, 1:200, Sigma, A6229), AKR1C1/C2 (rabbit mAb, 1:500, Abcam, ab179448), ARv7 (rabbit mAb, 1:500, Abcam, ab198394) and actin (mouse mAb, 1:1,000, ThermoFisher, MA5-11869). The membranes were washed three times, 10 minutes each, with 1×Tris-buffered saline (TBST, Bio-Rad, 1706435) in 0.1% Tween 20, on a rocking platform wherein they were incubated with rabbit anti-mouse IgG (ThermoFisher, 31450) or goat anti-rabbit IgG (Jackson ImmunoResearch, 111-035-003) secondary antibody (1:1,000) horseradish peroxidase conjugate for 1 hour. […] Bands were quantified by densitometry using ImageJ software and fold change in AKR1C3, AKR1C1/C2, and ARv7 protein expression was determined based on actin controls. […]

[1] = test system: 22Rv1 prostate cancer cells; test: 22Rv1 cell viability (MTS assay); conditions: 72 h
Procedure: Cell culture and reagents. 22Rv1 cells were purchased from the American Type Culture Collection (ATCC in 2016) and cultured in RPMI 1640 supplemented with 10% Fetal Bovine Serum (FBS, Fisher Scientific, MT35011CV) and Penicillin-Streptomycin Solution (1%, Fisher Scientific, MT30001Cl) at 37 °C in a humidified incubator with 5% carbon dioxide atmosphere. Stock solutions of E3 ligase ligand, lenalidomide 6 (10 mM), PROTAC 5 (25 mM), and AKR1C3 inhibitor 3 (100 mM) were prepared in DMSO.
Cell viability assay. Cells were seeded at a density of 10,000 cells/well in a 96-well plate containing 100 μL growth media per well and were incubated at 37 °C in a humidified incubator with 5% carbon dioxide over ~18-24 hours. Cells were treated with 6, 5, and 3 serially diluted at the indicated concentrations limiting the final DMSO concentration to less than 0.1% and incubated at 37 °C for 72 hours. 10 μL of MTS reagent (CellTiter96®Aqueous One Solution Reagent, Promega, G3580) was added to each well and incubated at the above-mentioned conditions for 4 hours. Absorbance was recorded at OD 490 nm on a Synergy LX multi-mode reader and the viability of cells were plotted as percentage of DMSO control.

DC50 (AKR1C3): 52 nM
DC50 (ARv7; 72 hours, read-out: ARv7 DC50 (half-maximal degradation concentration)): 70 nM
IC50 ([1]; Homo sapiens, 22Rv1, MTS, mean±standard deviation of two independent experiments): 49300 ± 1400 nM
Compound: O=C(O)/C=C/c1cc(C(=O)NCc2ccc(OCc3cn(CCOCCOCC(=O)Nc4cccc5c4CN(C4CCC(=O)NC4=O)C5=O)nn3)cc2)cc(-c2ccccc2)c1 (stereo not drawn) [Compound IA, (E)-3-(5-((4-((1-(2-(2-(2-((2-(2,6-dioxopiperidin-3-yl)-1-oxoisoindolin-4-yl)amino)-2-oxoethoxy)ethoxy)ethyl)-1H-1,2,3-triazol-4-yl)methoxy)benzyl)carbamoyl)-[1,1 ? biphenyl]-3-yl)acrylic acid]
ARv7 expression after proteasome inhibitor pretreatment (ARv7; 10 nM, 2 hour pretreatment with MG132 (3 μM), in words): not affected
ARv7 expression (ARv7; 10 nM, 72 hours, in words): almost complete amelioration of ARv7 expression
22Rv1 cell viability activity in words [1]: equipotent
